Our source for the EC50 and CC50 values is patent US11787799B2 (priority 2015, dated 2023).

The subject of series [1] is Yellow Fever Virus. The series can be described thus: microbe, parasite or virus in culture. Conditions: Yellow fever virus, Vero, read-out: EC50 Yellow Fever Virus. Format: cell-based.
A short description of series [2]: in vitro. The note with it: African green monkey.
Series [3] has as its system Echovirus 25. The series can be described thus: microbe, parasite or virus in culture. The note with it: Enterovirus B, read-out: EC50 ECHO25. In kind it is cell-based.
In series [4] the test system is Enterovirus 71. The series can be described thus: microbe, parasite or virus in culture. Format: cell-based. The note with it: Enterovirus A, EV71, read-out: EC50 EV71.
In series [5] the test system is Coxsackievirus B4. The series can be described thus: microbe, parasite or virus in culture. Format: cell-based. Conditions: Enterovirus B, B4 / CVB4, read-out: EC50 CVB4.
Series [6] can be described thus: in vitro. The note with it: human.
Series [7] relates to Poliovirus 3. The series can be described thus: microbe, parasite or virus in culture. Format: cell-based. Conditions: Enterovirus C, read-out: EC50 PV3.
For series [8], the system named is Poliovirus 1. The series can be described thus: microbe, parasite or virus in culture. Format: cell-based. Conditions: Enterovirus C, read-out: EC50 PV1.
For series [9], the system named is Coxsackievirus A9. The series can be described thus: microbe, parasite or virus in culture. Format: cell-based. Conditions: Enterovirus B, A9, read-out: EC50 COX A9.
Series [10] deals with Coxsackievirus B2. The series can be described thus: microbe, parasite or virus in culture. Format: cell-based. Conditions: Enterovirus B, B2 / CVB2, read-out: EC50 CVB2.
Series [11] concerns Coxsackievirus B1. The series can be described thus: microbe, parasite or virus in culture. In kind it is cell-based. The note with it: Enterovirus B, B1 / CVB1, read-out: EC50 CVB1.
The test system of series [12] is Echovirus 9. The series can be described thus: microbe, parasite or virus in culture. Format: cell-based. The note with it: Enterovirus B, read-out: EC50 ECHO09.
Series [13] relates to Echovirus 6. The series can be described thus: microbe, parasite or virus in culture. Format: cell-based. The note with it: Enterovirus B, read-out: EC50 ECHO06.
For series [14], the system named is Echovirus 7. The series can be described thus: microbe, parasite or virus in culture. Conditions: Enterovirus B, read-out: EC50 ECHO07. Format: cell-based.
Series [15] deals with Echovirus 11. The series can be described thus: microbe, parasite or virus in culture. In kind it is cell-based. Conditions: Enterovirus B, read-out: EC50 ECHO11.
In series [16] the test system is Echovirus 30. The series can be described thus: microbe, parasite or virus in culture. In kind it is cell-based. The note with it: Enterovirus B, read-out: EC50 ECHO30.
Series [17] concerns Coxsackievirus B5. The series can be described thus: microbe, parasite or virus in culture. Format: cell-based. The note with it: Enterovirus B, B5 / CVB5, read-out: EC50 CVB5.
Series [18] concerns Coxsackievirus B3-H3. The series can be described thus: microbe, parasite or virus in culture. Conditions: Coxsackievirus, B3 / CVB3, read-out: EC50 CVB3-H3. In kind it is cell-based.
The nature of series [19]: in vitro.
The test system of series [20] is Enterovirus D68/US/Mo/14-18949. The series can be described thus: Antiviral assay, Enterovirus D68 strain US/Mo/14-18949 in RD cells. In kind it is cell-based. Conditions: Enterovirus D.
Series [21] deals with Enterovirus D68/Fermon. The series can be described thus: Antiviral assay, Enterovirus D68 strain Fermon in RD cells. Format: cell-based. The note with it: Enterovirus D.
Series [22] deals with Enterovirus D68/US/KY/14-18953. The series can be described thus: Antiviral assay, Enterovirus D68 strain US/KY/14-18953 in RD cells. The note with it: Enterovirus D. In kind it is cell-based.
Series [23] deals with Influenza A H1N1. The series can be described thus: microbe, parasite or virus in culture. Format: cell-based. Conditions: Influenza A virus, H1N1, MDCK, read-out: EC50 Influenza A H1N1.
Series [24] concerns Rift Valley virus. The series can be described thus: organism not typed. Format: cell-based. Conditions: Vero 76, read-out: EC50 Rift Valley virus.
For series [25], the system named is RSV (resp syncitial virus). The series can be described thus: microbe, parasite or virus in culture. Format: cell-based. Conditions: human respiratory syncytial virus, MA104, read-out: EC50 RSV.
The nature of series [26]: in vitro. The note with it: dog.
The test system of series [27] is Punta Toro virus. The series can be described thus: microbe, parasite or virus in culture. Conditions: Punta Toro virus, Vero 76, read-out: EC50 Punta Toro virus. Format: cell-based.
Series [28] can be described thus: in vitro. The note with it: African green monkey. The source holds these as a separate data set.
Series [29] relates to Measles. The series can be described thus: microbe, parasite or virus in culture. The note with it: Measles morbillivirus, Vero 76, read-out: EC50 Measles. In kind it is cell-based.

Molecules are shown by their SMILES. Like-named read-outs stand apart in the source and are kept apart here.

In general, EC50 refers to the concentration that produces a half-maximal response. With `O=c1cnn([C@@H]2O[C@H](CO)[C@@H](O)[C@H]2O)c(=O)[nH]1` [Compound 6-Azauridine, 6-Azauridine, reference compound], the EC50 in series [1] came out at 0.29 µM. Also, in series [2], the CC50 was 10 µM.
Regarding `CC(C)n1ncc2c(N(C(=O)c3ccc(F)cc3)C(=O)c3ccc(F)cc3)cc(-c3cccs3)nc21` [JX-039], the EC50 in series [3] is above 10 µM; in series [4], 3.2 ± 0.1 µM; in series [5] it was above 10 µM; in [7], above 10 µM; in [8], above 10 µM; in series [9], 4.5 µM. For the same compound, the EC50 in series [10] is 4.7 µM; in series [11] it was 4.7 µM; in [12], above 10 µM; in series [13], 2.4 µM; in series [14] it was above 10 µM; in series [15] it was above 10 µM. Moreover, the EC50 was above 10 µM in series [16], above 10 µM in series [17] and 4.7 µM in [18]. In series [6], this compound had a CC50 of 10 µM.
`CC(C)n1ncc2c(NC(=O)c3ccc(F)cc3)cc(-c3cccs3)nc21` [JX-054]: the EC50 in series [4] is 4 µM; in [5] it was 4.7 µM; in [7], above 10 µM; in series [8], above 10 µM; in series [9], 4.7 µM; in series [10] it was 4.7 µM. In addition, the EC50 in [20] came out at 2.53 ± 0.23 µM; in series [11], 4.7 µM; in [12], 2.4 µM; in series [14] it was 4.7 µM; in [21], 2.4 µM; in [15], 3.1 µM. Besides, the EC50 was 4.7 µM in series [16], 4.7 µM in [17], 4.7 µM in series [18] and 3.4 ± 1.18 µM in series [22]. Further, in series [19], the CC50 stood at 50 µM.
As for `NC(=O)c1ncn([C@@H]2O[C@H](CO)[C@@H](O)[C@H]2O)n1` [Ribavirin, reference compound], the EC50 in [23] came out at 7.5 µM; in [24], 9.1 µM; in series [25] it was 12 µM; in series [27], 11 µM. In series [26], this compound returned a CC50 above 320 µM.
As to `Nc1cc2nc[nH]c2c(=O)[nH]1` [3-Deazaguanine, reference compound], the CC50 in series [28] was above 100 µM. Further, the EC50 in series [29] was determined as 2.4 µM.
